# Test results reported in US11981658B2, “Substituted aminopyridine compounds as EGFR inhibitors” (YUHAN CORPORATION, priority 2021, dated 2024).
# Like-named read-outs stand apart in the source and are kept apart here.
# Tests used:
# [1] = target: EGFR Del19/T790M/C797S (Homo sapiens, UniProt P00533, C797S/DEL746-750/T790M); experiment: Biochemical EGFR kinase inhibition assay (Lance Ultra TR-FRET), triple mutant del19/T790M/C797S
# Summary of the method: (§1)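 Step 1: compound in kinase buffer, 0.003–10 μM. Step 2: kinase reaction 1 h at room temperature. Step 4: TR-FRET read at 615/665 nm; IC50 calculated.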
# [2] = target: EGFR Del19/C797S (Homo sapiens, UniProt P00533, C797S/DEL746-750); experiment: Biochemical EGFR kinase inhibition assay (Lance Ultra TR-FRET), double mutant del19/C797S
# Summary of the method: as §1
# [3] = target: EGFR wildtype (WT) (Homo sapiens, UniProt P00533); experiment: Biochemical EGFR kinase inhibition assay (Lance Ultra TR-FRET), wildtype
# Summary of the method: as §1
# [4] = target: EGFR L858R/T790M/C797S (Homo sapiens, UniProt P00533, C797S/L858R/T790M); experiment: Biochemical EGFR kinase inhibition assay (Lance Ultra TR-FRET), triple mutant L858R/T790M/C797S
# Summary of the method: as §1
# [5] = target: EGFR L858R/C797S (Homo sapiens, UniProt P00533, C797S/L858R); experiment: Biochemical EGFR kinase inhibition assay (Lance Ultra TR-FRET), double mutant L858R/C797S
# Summary of the method: as §1
# [6] = IC50 Del19/T790M/C797S (nM), 100 μM ATP
# [7] = IC50 Del19/C797S (nM), 100 μM ATP
# [8] = IC50 L858R/T790M/C797S (nM), 100 μM ATP
# [9] = IC50 L858R/C797S (nM), 100 μM ATP
# [10] = ATP at Km, read-out: IC50 Del19/T790M/C797S (nM), Km ATP
# [11] = ATP at Km, read-out: IC50 Del19/C797S (nM), Km ATP
# [12] = ATP at Km, read-out: IC50 WT (nM), Km ATP
# [13] = ATP at Km, read-out: IC50 L858R/T790M/C797S (nM), Km ATP
# [14] = ATP at Km, read-out: IC50 L858R/C797S (nM), Km ATP
# [15] = Km ATP, read-out: IC50 Del19/T790M/C797S (nM) Km ATP
# [16] = Km ATP, read-out: IC50 Del19/C797S (nM) Km ATP
# [17] = Km ATP, read-out: IC50 WT (nM) Km ATP
# [18] = Km ATP, read-out: IC50 L858R/T790M/C797S (nM) Km ATP
# [19] = Km ATP, read-out: IC50 L858R/C797S (nM) Km ATP
# Sequence of EGFR L858R/T790M/C797S (P00533 25-1210 T790M/C797S/L858R): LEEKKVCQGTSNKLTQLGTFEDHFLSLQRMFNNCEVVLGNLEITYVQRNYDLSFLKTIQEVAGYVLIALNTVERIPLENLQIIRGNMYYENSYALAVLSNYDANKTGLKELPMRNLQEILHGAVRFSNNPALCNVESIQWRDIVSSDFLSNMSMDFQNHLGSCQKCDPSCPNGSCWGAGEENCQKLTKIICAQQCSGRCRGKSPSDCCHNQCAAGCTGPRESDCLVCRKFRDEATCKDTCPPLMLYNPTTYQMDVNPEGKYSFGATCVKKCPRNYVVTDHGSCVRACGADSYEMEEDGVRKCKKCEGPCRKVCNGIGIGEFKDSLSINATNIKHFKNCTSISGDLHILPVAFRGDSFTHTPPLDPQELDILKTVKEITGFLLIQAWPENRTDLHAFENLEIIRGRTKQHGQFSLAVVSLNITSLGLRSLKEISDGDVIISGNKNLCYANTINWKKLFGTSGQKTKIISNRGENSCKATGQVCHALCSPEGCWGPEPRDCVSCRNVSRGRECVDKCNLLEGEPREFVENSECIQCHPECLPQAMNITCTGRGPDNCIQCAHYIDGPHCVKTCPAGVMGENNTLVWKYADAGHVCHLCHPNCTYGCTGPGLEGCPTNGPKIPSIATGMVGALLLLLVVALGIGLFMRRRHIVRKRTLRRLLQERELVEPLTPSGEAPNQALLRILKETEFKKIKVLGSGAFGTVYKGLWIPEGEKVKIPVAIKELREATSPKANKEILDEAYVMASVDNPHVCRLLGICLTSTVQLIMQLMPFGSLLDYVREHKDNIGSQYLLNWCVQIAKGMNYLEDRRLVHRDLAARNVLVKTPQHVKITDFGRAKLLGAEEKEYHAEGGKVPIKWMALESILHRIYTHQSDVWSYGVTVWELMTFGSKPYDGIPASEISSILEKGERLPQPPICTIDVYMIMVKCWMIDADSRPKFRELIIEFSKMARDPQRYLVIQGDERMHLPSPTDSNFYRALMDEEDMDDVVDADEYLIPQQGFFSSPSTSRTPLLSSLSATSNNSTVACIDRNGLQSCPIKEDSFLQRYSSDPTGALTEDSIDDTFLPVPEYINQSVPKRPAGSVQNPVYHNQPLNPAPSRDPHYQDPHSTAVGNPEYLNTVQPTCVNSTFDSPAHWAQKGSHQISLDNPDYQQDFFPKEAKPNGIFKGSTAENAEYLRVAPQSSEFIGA
# Sequence of EGFR Del19/T790M/C797S (P00533 with tags, fused parts or gaps DEL746-750/T790M/C797S): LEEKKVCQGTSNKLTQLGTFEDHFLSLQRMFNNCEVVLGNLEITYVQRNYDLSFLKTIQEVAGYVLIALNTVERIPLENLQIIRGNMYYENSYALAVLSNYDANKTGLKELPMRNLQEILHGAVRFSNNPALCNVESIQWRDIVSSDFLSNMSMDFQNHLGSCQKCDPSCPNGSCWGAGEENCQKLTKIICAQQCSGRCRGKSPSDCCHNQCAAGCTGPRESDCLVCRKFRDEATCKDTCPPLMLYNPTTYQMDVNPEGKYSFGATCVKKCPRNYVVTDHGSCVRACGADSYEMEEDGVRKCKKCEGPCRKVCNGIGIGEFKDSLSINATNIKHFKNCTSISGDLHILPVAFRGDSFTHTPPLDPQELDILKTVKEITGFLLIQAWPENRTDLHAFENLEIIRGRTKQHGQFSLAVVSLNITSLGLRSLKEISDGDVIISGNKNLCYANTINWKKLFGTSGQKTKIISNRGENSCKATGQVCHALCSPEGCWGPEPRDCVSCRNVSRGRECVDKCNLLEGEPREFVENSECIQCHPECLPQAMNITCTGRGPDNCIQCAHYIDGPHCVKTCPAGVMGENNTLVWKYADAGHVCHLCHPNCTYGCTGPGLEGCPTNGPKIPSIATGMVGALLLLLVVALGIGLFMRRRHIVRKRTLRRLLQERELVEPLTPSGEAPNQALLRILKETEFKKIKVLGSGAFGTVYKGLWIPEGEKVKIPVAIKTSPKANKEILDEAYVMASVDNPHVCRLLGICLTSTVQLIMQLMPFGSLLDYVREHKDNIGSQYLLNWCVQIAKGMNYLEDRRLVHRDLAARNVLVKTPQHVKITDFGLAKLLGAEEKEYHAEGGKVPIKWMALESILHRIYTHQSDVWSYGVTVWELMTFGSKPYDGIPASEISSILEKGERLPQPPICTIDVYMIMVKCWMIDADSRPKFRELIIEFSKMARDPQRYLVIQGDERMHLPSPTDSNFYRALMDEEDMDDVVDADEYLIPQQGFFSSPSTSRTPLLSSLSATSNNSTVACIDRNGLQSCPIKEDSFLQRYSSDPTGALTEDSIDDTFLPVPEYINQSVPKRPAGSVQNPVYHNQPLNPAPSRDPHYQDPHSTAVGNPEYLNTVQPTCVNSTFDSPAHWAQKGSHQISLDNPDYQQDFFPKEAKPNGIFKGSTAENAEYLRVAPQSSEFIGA
# Sequence of EGFR wildtype (WT) (P00533 25-1210): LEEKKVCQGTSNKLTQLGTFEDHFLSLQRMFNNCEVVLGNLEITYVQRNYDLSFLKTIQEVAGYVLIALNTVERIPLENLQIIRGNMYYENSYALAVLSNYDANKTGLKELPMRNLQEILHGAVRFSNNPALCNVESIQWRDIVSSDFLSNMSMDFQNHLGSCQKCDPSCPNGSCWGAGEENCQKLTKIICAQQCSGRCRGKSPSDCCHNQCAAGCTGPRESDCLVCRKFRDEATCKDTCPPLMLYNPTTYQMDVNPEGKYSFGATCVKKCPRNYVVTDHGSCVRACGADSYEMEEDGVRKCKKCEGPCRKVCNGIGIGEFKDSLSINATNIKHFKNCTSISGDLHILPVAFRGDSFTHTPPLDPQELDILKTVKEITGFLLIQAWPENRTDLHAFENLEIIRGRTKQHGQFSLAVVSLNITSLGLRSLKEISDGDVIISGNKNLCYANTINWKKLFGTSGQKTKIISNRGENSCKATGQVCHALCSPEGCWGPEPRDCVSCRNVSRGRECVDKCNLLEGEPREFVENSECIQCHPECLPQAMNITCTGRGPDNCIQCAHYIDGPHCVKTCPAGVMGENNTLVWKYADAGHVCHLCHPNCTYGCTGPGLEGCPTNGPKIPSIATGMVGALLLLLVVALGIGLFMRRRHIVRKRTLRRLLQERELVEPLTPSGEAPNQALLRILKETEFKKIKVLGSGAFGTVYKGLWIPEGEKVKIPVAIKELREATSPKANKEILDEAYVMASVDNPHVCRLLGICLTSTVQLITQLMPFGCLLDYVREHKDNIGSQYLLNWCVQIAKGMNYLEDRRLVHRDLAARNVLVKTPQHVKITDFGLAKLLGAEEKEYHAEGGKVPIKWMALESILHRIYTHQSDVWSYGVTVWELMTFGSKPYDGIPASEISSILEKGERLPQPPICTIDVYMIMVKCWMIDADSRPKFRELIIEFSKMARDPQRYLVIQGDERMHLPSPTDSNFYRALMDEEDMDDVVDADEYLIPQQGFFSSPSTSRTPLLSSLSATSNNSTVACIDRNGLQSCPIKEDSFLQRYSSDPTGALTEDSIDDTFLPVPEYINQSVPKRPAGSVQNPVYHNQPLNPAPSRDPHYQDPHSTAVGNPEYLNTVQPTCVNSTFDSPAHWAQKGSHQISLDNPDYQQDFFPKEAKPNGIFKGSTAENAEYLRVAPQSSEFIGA
# Sequence of EGFR L858R/C797S (P00533 25-1210 C797S/L858R): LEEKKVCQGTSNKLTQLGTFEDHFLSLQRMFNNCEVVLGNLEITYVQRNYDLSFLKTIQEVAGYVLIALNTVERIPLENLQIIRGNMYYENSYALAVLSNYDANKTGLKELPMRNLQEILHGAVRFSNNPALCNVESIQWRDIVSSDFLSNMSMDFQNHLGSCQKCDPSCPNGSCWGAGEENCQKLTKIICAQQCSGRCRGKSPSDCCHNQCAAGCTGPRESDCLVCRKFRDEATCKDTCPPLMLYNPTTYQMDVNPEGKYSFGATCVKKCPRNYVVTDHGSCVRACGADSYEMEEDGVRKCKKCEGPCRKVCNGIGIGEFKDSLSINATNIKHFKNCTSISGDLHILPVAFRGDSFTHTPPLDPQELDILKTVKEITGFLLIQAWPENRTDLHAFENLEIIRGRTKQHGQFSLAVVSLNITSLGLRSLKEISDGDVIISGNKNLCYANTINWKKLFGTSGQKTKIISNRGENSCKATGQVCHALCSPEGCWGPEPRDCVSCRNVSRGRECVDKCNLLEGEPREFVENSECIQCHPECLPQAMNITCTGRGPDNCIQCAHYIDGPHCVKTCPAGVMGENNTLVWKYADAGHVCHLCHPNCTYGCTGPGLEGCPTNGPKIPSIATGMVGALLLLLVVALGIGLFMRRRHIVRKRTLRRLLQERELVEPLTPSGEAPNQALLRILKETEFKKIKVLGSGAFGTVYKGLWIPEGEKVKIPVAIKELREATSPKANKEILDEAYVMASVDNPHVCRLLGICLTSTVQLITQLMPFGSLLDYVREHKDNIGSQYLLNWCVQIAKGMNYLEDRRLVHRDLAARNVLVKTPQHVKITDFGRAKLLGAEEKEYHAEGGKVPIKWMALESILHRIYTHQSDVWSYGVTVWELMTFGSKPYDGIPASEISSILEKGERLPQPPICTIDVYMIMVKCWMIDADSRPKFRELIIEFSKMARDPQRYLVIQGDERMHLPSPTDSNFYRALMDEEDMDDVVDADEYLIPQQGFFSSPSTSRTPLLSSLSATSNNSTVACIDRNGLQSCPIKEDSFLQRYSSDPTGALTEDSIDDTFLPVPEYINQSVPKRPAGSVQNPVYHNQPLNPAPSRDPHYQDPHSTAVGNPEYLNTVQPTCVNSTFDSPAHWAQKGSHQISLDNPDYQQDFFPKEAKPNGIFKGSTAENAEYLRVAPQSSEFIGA
SMILES,"IC50 [1, 6]","IC50 ([1]; Km ATP, read-out: IC50 Del19/T790M/C797S (nM), Km ATP)","IC50 [2, 7]","IC50 ([2]; Km ATP, read-out: IC50 Del19/C797S (nM), Km ATP)","IC50 ([3]; IC50 WT (nM), 100 μM ATP)","IC50 ([3]; Km ATP, read-out: IC50 WT (nM), Km ATP)","IC50 [4, 8]","IC50 ([4]; Km ATP, read-out: IC50 L858R/T790M/C797S (nM), Km ATP)","IC50 [5, 9]","IC50 ([5]; Km ATP, read-out: IC50 L858R/C797S (nM), Km ATP)","IC50 [1, 10]","IC50 [2, 11]","IC50 [3, 12]","IC50 [4, 13]","IC50 [5, 14]","IC50 [1, 15]","IC50 [2, 16]","IC50 [3, 17]","IC50 [4, 18]","IC50 [5, 19]"
"COC1CCN(c2cc(Nc3ccnc(-c4cnn(S(=O)(=O)C5CC5)c4)n3)ncc2C#Cc2cnn(C3CCOCC3)c2)CC1 [Example 98, 2-(1-(Cyclopropylsulfonyl)-1H-pyrazol-4-yl)-N-(4-(4-methoxypiperidin-1-yl)-5-((1-(tetrahydro-2H-pyran-4-yl)-1H-pyrazol-4-yl)ethynyl)pyridin-2-yl)pyrimidin-4-amine]",2.1 nM,–,21.1 nM,–,> 10000 nM,–,9.9 nM,–,101 nM,–,–,–,–,–,–,2.3 nM,15.5 nM,72 nM,2.3 nM,7.5 nM
"CN(C)C(=O)c1cccc(C#Cc2cnc(Nc3ccnc(-c4cnn(S(=O)(=O)C5CC5)c4)n3)cc2N2CCC(C)(CO)CC2)n1 [Example 264, 6-((6-((2-(1-(Cyclopropylsulfonyl)-1H-pyrazol-4-yl)pyrimidin-4-yl)amino)-4-(4-(hydroxymethyl)-4-methylpiperidin-1-yl)pyridin-3-yl)ethynyl)-N,N-dimethylpicolinamide]",0.9 nM,–,1.8 nM,–,> 10000 nM,–,0.8 nM,–,14.1 nM,–,0.7 nM,1 nM,9.9 nM,0.3 nM,1.3 nM,–,–,–,–,–
"Cn1ccc(C#Cc2cnc(Nc3ccnc(-c4cnn(S(=O)(=O)C5CC5)c4)n3)cc2N2CCC(C)(CO)CC2)n1 [Example 107, (1-(2-((2-(1-(Cyclopropylsulfonyl)-1H-pyrazol-4-yl)pyrimidin-4-yl)amino)-5-((1-methyl-1H-pyrazol-3-yl)ethynyl)pyridin-4-yl)-4-methylpiperidin-4-yl)methanol]",1.2 nM,–,4.6 nM,–,> 10000 nM,–,1.3 nM,–,85.6 nM,–,–,–,–,–,–,1.2 nM,3.2 nM,24.1 nM,0.6 nM,1.9 nM
"CN(C)CC1(O)CCN(c2cc(Nc3ccnc(-c4cnn(S(=O)(=O)C5CC5)c4)n3)ncc2C#Cc2cnn(C(F)(F)F)c2)CC1 [Example 317, 1-(2-((2-(1-(Cyclopropylsulfonyl)-1H-pyrazol-4-yl)pyrimidin-4-yl)amino)-5-((1-(trifluoromethyl)-1H-pyrazol-4-yl)ethynyl)pyridin-4-yl)-4-((dimethylamino)methyl)piperidin-4-ol]",16.2 nM,–,245 nM,–,> 10000 nM,–,35.1 nM,–,334 nM,–,–,–,–,–,–,–,–,–,–,–
"CC(C)Nc1cc(Nc2ccnc(-c3cnn(S(=O)(=O)C4CC4)c3)n2)ncc1C#CCN1CCOCC1 [Example 202, N^2-(2-(1-(Cyclopropylsulfonyl)-1H-pyrazol-4-yl)pyrimidin-4-yl)-N^4-isopropyl-5-(3-morpholinoprop-1-yn-1-yl)pyridine-2,4-diamine]",–,–,–,–,–,–,–,–,–,–,2.2 nM,43.4 nM,312 nM,1.6 nM,92.7 nM,–,–,–,–,–
"O=S(=O)(C1CC1)n1cc(-c2nccc(Nc3cc(N[C@H]4CC[C@@H](O)CC4)c(C#Cc4ccc(CN5CCOCC5)cn4)cn3)n2)cn1 [Example 184, (1s,4s)-4-((2-((2-(1-(Cyclopropylsulfonyl)-1H-pyrazol-4-yl)pyrimidin-4-yl)amino)-5-((5-(morpholinomethyl)pyridin-2-yl)ethynyl)pyridin-4-yl)amino)cyclohexan-1-ol]",1.5 nM,–,3.5 nM,–,> 10000 nM,–,2.1 nM,–,94.1 nM,–,0.4 nM,2.3 nM,11.7 nM,0.2 nM,3.2 nM,–,–,–,–,–
"O=S(=O)(C1CC1)n1cc(-c2nccc(Nc3cc(N4CCC(O)CC4)c(C#Cc4cnn(CCF)c4)cn3)n2)cn1 [Example 28, 1-(2-((2-(1-(Cyclopropylsulfonyl)-1H-pyrazol-4-yl)pyrimidin-4-yl)amino)-5-((1-(2-fluoroethyl)-1H-pyrazol-4-yl)ethynyl)pyridin-4-yl)piperidin-4-ol]",0.7 nM,–,4.9 nM,–,> 10000 nM,–,2.3 nM,–,28.1 nM,–,–,–,–,–,–,–,–,–,–,–
"Cn1cc(C#Cc2cnc(Nc3ccnc(-c4cnn(S(=O)(=O)C5CC5)c4)n3)cc2N2CCC(NCC(F)(F)F)CC2)cn1 [Example 135, 2-(1-(Cyclopropylsulfonyl)-1H-pyrazol-4-yl)-N-(5-((1-methyl-1H-pyrazol-4-yl)ethynyl)-4-(4-((2,2,2-trifluoroethyl)amino)piperidin-1-yl)pyridin-2-yl)pyrimidin-4-amine]",2.6 nM,–,3 nM,–,> 10000 nM,–,5.2 nM,–,40.6 nM,–,–,–,–,–,–,0.7 nM,1.6 nM,28.7 nM,0.6 nM,4.1 nM

# Continued, values first:
"IC50 [1, 6]","IC50 ([1]; Km ATP, read-out: IC50 Del19/T790M/C797S (nM), Km ATP)","IC50 [2, 7]","IC50 ([2]; Km ATP, read-out: IC50 Del19/C797S (nM), Km ATP)","IC50 ([3]; IC50 WT (nM), 100 μM ATP)","IC50 ([3]; Km ATP, read-out: IC50 WT (nM), Km ATP)","IC50 [4, 8]","IC50 ([4]; Km ATP, read-out: IC50 L858R/T790M/C797S (nM), Km ATP)","IC50 [5, 9]","IC50 ([5]; Km ATP, read-out: IC50 L858R/C797S (nM), Km ATP)","IC50 [1, 10]","IC50 [2, 11]","IC50 [3, 12]","IC50 [4, 13]","IC50 [5, 14]","IC50 [1, 15]","IC50 [2, 16]","IC50 [3, 17]","IC50 [4, 18]","IC50 [5, 19]",SMILES
0.2 nM,0.2 nM,0.5 nM,0.3 nM,1630 nM,5.1 nM,0.2 nM,0.1 nM,8.6 nM,0.8 nM,–,–,–,–,–,–,–,–,–,–,"CC1(CO)CCN(c2cc(Nc3ccnc(-c4cnn(S(=O)(=O)C5CC5)c4)n3)ncc2C#CC2(O)COC2)CC1 [Example 354, 3-((6-((2-(1-(Cyclopropylsulfonyl)-1H-pyrazol-4-yl)pyrimidin-4-yl)amino)-4-(4-(hydroxymethyl)-4-methylpiperidin-1-yl)pyridin-3-yl)ethynyl)oxetan-3-ol]"
2.5 nM,–,4.8 nM,–,> 10000 nM,–,1.5 nM,–,39.3 nM,–,2.2 nM,1.6 nM,11.9 nM,0.8 nM,2.1 nM,–,–,–,–,–,"O=S(=O)(C1CC1)n1cc(-c2nccc(Nc3cc(NC4CCC(CO)CC4)c(C#Cc4cnn(C5CC5(F)F)c4)cn3)n2)cn1 (centres unmarked) [Example 327, ((1s,4s)-4-((2-((2-(1-(Cyclopropylsulfonyl)-1H-pyrazol-4-yl)pyrimidin-4-yl)amino)-5-((1-(2,2-difluorocyclopropyl)-1H-pyrazol-4-yl)ethynyl)pyridin-4-yl)amino)cyclohexyl)methanol]"
1.2 nM,–,8.2 nM,–,> 10000 nM,–,2.4 nM,–,94.9 nM,–,–,–,–,–,–,–,–,–,–,–,"CN1CCN(Cc2ccc(C#Cc3cnc(Nc4ccnc(-c5cnn(S(=O)(=O)C6CC6)c5)n4)cc3NC[C@H]3CC[C@](C)(O)CC3)cc2)CC1 [Example 363, (1r,4r)-4-(((2-((2-(1-(Cyclopropylsulfonyl)-1H-pyrazol-4-yl)pyrimidin-4-yl)amino)-5-((4-((4-methylpiperazin-1-yl)methyl)phenyl)ethynyl)pyridin-4-yl)amino)methyl)-1-methylcyclohexan-1-ol]"
0.2 nM,–,1.2 nM,–,5060 nM,–,1.7 nM,–,21.6 nM,–,–,–,–,–,–,–,–,–,–,–,"CC1(CO)CCN(c2cc(Nc3ccnc(-c4cnn(S(=O)(=O)C5CC5)c4)n3)ncc2C#CC2CCN(C(=O)C(F)(F)F)C2)CC1 (centres unmarked) [Example 415, 1-(3-((6-((2-(1-(Cyclopropylsulfonyl)-1H-pyrazol-4-yl)pyrimidin-4-yl)amino)-4-(4-(hydroxymethyl)-4-methylpiperidin-1-yl)pyridin-3-yl)ethynyl)pyrrolidin-1-yl)-2,2,2-trifluoroethan-1-one]"
